What all share (experiment): inhibition of tumour cell growth, NCI panel, 48 h
The subject of test [1] is 786-0.
For test [2], the system named is A498.
For test [3], the system named is A549.
Test [4] concerns ACHN.
The test system of test [5] is CAKI-1.
The test system of test [6] is HOP-62.
Test [7] concerns LOX IMVI.
The test system of test [8] is MOLT-4.
Test [9] has as its system NCI-H226.
The subject of test [10] is OVCAR-3.
Test [11] concerns OVCAR-5.
For test [12], the system named is RPMI-8226.
Test [13] relates to RXF 393.
Test [14] deals with SF-268.
Test [15] has as its system SF-295.
The subject of test [16] is SN12C.
Test [17] concerns SW-620.
For test [18], the system named is T47D.
Test [19] concerns COLO 205.
For test [20], the system named is OVCAR-4.

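96-well plates; 48 h exposure; 5 concentrations. Endpoints by linear interpolation between flanking doses. Not reached: highest tested concentration assigned. GI50 marks 50% less growth.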 The source made the active and inactive calls. No stated cut-off is given here; in the data, active = GI50 up to about 1.1 µM and inactive = higher. Some results are limits rather than exact numbers.

In the case of `COc1ccc(-c2c(C#N)c(O)n(C3OC(CO)C(O)C(O)C3O)c(=S)c2C#N)cc1` (stereo not given), the GI50 in test [1], in test [2], in [3], in test [4], in [5] and in [6] was > 100 µM (inactive) each time. Moreover, the GI50 in test [7], in [8], in test [9], in test [10], in [11] and in test [12] was > 100 µM (inactive) throughout. Besides, the GI50 in test [13], in test [14], in test [15], in test [16], in [17] and in test [18] was > 100 µM (inactive) throughout.

Regarding `Cc1cc(C)c2c(c1)CC1(Cc3c(ccc(C)c3C)C1=O)C2=O` (stereo not given), the GI50 is > 100 µM (inactive) in [1]; > 100 µM (inactive) in test [2]; > 100 µM (inactive) in [3]; > 100 µM (inactive) in test [4]; > 100 µM (inactive) in [5]; > 10 µM (inactive) in test [19]. Besides, the GI50 in test [8], in test [9], in [10], in test [20], in [11] and in test [12] was > 100 µM (inactive) in each case. The GI50 in [13], in test [14], in test [15], in test [16], in [17] and in test [18] was > 100 µM (inactive) throughout.

As to `O=C(CC(C(=O)c1cccs1)c1ccc2c(c1)OCO2)c1ccccc1` (stereo not given), the GI50 in test [1], in [2], in test [3], in test [4], in test [5] and in test [19] was > 100 µM (inactive) in each case. Further, the GI50 in test [6], in test [7], in test [9], in test [10], in [20] and in test [12] was > 100 µM (inactive) throughout. The GI50 was > 100 µM (inactive) in test [13]; > 100 µM (inactive) in test [14]; > 100 µM (inactive) in test [15]; > 100 µM (inactive) in test [16]; > 100 µM (inactive) in test [17]; 52.7 µM (inactive) in test [18].

Take `COc1ccc(C(=O)/C=C/c2cccnc2)cc1OC`: the GI50 in [1] was 4.51 µM (inactive); in [2] it was 14.6 µM (inactive); in [3], 14.3 µM (inactive); in test [4], 13.8 µM (inactive); in test [5] it was 4.44 µM (inactive); in test [19], 10.9 µM (inactive). In addition, the GI50 in [6] was 14.9 µM (inactive); in test [7], 1.58 µM (inactive); in test [8], 3.33 µM (inactive); in test [9] it was 12.1 µM (inactive); in [10] it was 3.4 µM (inactive); in test [20] it was 12 µM (inactive). Moreover, the GI50 in [11] is 12.1 µM (inactive); in [12], 2.6 µM (inactive); in [13], 5.81 µM (inactive); in test [14] it was 7.55 µM (inactive); in [15], 13.4 µM (inactive); in test [16], 6.25 µM (inactive). Also, the GI50 in [18] is 8.45 µM (inactive).

Take `C[C@]12CC/C(=N\O)C=C1CC[C@@H]1[C@@H]2CC[C@]2(C)C(=N/O)/C(=C/c3ccc([N+](=O)[O-])cc3)C[C@@H]12`: the GI50 was 6.65 µM (inactive) in test [1]; 13 µM (inactive) in test [2]; 3.94 µM (inactive) in test [3]; 5.21 µM (inactive) in test [4]; 2.29 µM (inactive) in [5]; 4.9 µM (inactive) in test [19]. For the same compound, the GI50 is 18.4 µM (inactive) in [6]; 5.11 µM (inactive) in test [7]; 2.55 µM (inactive) in test [8]; 12.9 µM (inactive) in test [9]; 2.61 µM (inactive) in [10]; 4.73 µM (inactive) in test [20]. Further, the GI50 is 1.87 µM (inactive) in test [12]; 59.6 µM (inactive) in [13]; 3.16 µM (inactive) in [14]; 3.56 µM (inactive) in test [15]; 4.27 µM (inactive) in [16]; 5.42 µM (inactive) in test [17]. In addition, the GI50 in test [18] was 1.05 µM (active).

For the compound `CC1=C(C)C2(C#N)C(=O)N3C(=NC(c4ccco4)NC3c3ccco3)C2(C#N)C(c2ccco2)N1` (stereo not given), the GI50 in [1], in test [2], in test [3], in test [4], in [5] and in [19] was > 100 µM (inactive) each time. In addition, the GI50 in [6], in test [7], in test [8], in test [9], in test [20] and in test [11] was > 100 µM (inactive) in each case. Moreover, the GI50 in [12], in [13], in test [14], in test [15], in test [16] and in test [17] was > 100 µM (inactive) in each case. Moreover, the GI50 in test [18] is > 100 µM (inactive).

As to `COC(=O)C1(C(=O)OC)N=C(C)OC1c1ccccc1O` (stereo not given), the GI50 in test [1], in test [2], in [3], in [4], in [5] and in test [19] was > 100 µM (inactive) each time. Besides, the GI50 in [6], in test [7], in test [8], in [9], in [10] and in test [20] was > 100 µM (inactive) in each case. Moreover, the GI50 in [11], in [12], in test [13], in test [15], in [16] and in test [17] was > 100 µM (inactive) in each case. Also, in test [18], the GI50 is > 100 µM (inactive).

In the case of `Nc1ncc(/C=N/O)c(NCC2(CO)CC(CCc3ccccc3)C2)n1` (stereo not given), the GI50 in test [1] is 15.2 µM (inactive); in test [2], 11 µM (inactive); in [3] it was 2.48 µM (inactive); in test [5], 18.4 µM (inactive); in test [19], 10.8 µM (inactive); in test [6], 11.3 µM (inactive). The GI50 was 2.39 µM (inactive) in test [7]; 3.36 µM (inactive) in test [8]; 12.9 µM (inactive) in [9]; 11 µM (inactive) in test [10]; 8.26 µM (inactive) in test [20]; 16.9 µM (inactive) in test [11]. For the same compound, the GI50 in test [12] is 5.73 µM (inactive); in test [13], 12.1 µM (inactive); in test [14], 23.9 µM (inactive); in [15] it was 1.02 µM (active); in test [16], 17 µM (inactive); in test [18] it was 0.0111 µM (active).

For `COCC#C[C@@]1(O)CCCCC1CC(OC)OC` (stereo not given in full), the GI50 in [1] is > 100 µM (inactive); in test [2], 38.4 µM (inactive); in [3] it was > 100 µM (inactive); in test [4] it was > 100 µM (inactive); in [5], > 100 µM (inactive); in [19], > 100 µM (inactive). Also, the GI50 in test [6] is > 100 µM (inactive); in [7], 48 µM (inactive); in test [8], 42.7 µM (inactive); in test [9] it was > 100 µM (inactive); in [20] it was 50.4 µM (inactive); in test [11] it was > 100 µM (inactive). Further, the GI50 is 32.4 µM (inactive) in test [12]; > 100 µM (inactive) in test [13]; > 100 µM (inactive) in [14]; > 100 µM (inactive) in test [15]; > 100 µM (inactive) in [16]; > 100 µM (inactive) in test [18].

In the case of `O=S(=O)(O)c1ccc(O)c(/N=N/c2c(O)ccc3ccccc23)c1`, the GI50 is > 100 µM (inactive) in test [1]; > 100 µM (inactive) in test [2]; > 100 µM (inactive) in test [3]; > 100 µM (inactive) in test [5]; 87.3 µM (inactive) in test [19]; > 100 µM (inactive) in test [6]. The GI50 in test [7] was > 100 µM (inactive); in [8] it was > 100 µM (inactive); in test [9], > 100 µM (inactive); in test [10], 34.6 µM (inactive); in [20], > 100 µM (inactive); in test [11], > 100 µM (inactive). The GI50 in test [12], in test [13], in [14], in test [15], in test [16] and in [17] was > 100 µM (inactive) each time. Also, in [18], the GI50 is > 100 µM (inactive).

For the origin of these results see ChEMBL document CHEMBL1201862, “PubChem BioAssay data set” (2004).
